In ChEMBL document CHEMBL1201862, “PubChem BioAssay data set” (2004):
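Following 48 hours of exposure in 96-well plates, responses at five concentrations were used to interpolate endpoints linearly. GI50: concentration for 50% inhibition of growth.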 Active and inactive are the calls of the source. Cut-off read from the data, not from the text of the source: active = GI50 up to about 1.1 µM and inactive = higher.

Experiments:
Test in all cases: NCI tumour cell line growth inhibition, 48 h
DU-145 = system: DU-145
TK-10 = system: TK-10
NCI-H23 = system: NCI-H23
Malme-3M = system: Malme-3M
OVCAR-5 = system: OVCAR-5
SF-268 = system: SF-268
SN12C = system: SN12C
HCT-116 = system: HCT-116
NCI-H226 = system: NCI-H226
HCC 2998 = system: HCC 2998
IGROV-1 = system: IGROV-1
A549 = system: A549
A498 = system: A498
PC-3 = system: PC-3
CAKI-1 = system: CAKI-1
RXF 393 = system: RXF 393
SK-MEL-2 = system: SK-MEL-2
UO-31 = system: UO-31
KM12 = system: KM12
RPMI-8226 = system: RPMI-8226

Structure (SMILES) | GI50 (DU-145) | GI50 (TK-10) | GI50 (NCI-H23) | GI50 (Malme-3M) | GI50 (OVCAR-5) | GI50 (SF-268) | GI50 (SN12C) | GI50 (HCT-116) | GI50 (NCI-H226) | GI50 (HCC 2998) | GI50 (IGROV-1) | GI50 (A549) | GI50 (A498) | GI50 (PC-3) | GI50 (CAKI-1) | GI50 (RXF 393) | GI50 (SK-MEL-2) | GI50 (UO-31) | GI50 (KM12) | GI50 (RPMI-8226)
O=C(C1OC1c1ccc([N+](=O)[O-])cc1)C12CC3CC(CC(C3)C1)C2 (stereo unspecified) | 18.2 µM (inactive) | 18.1 µM (inactive) | 13.4 µM (inactive) | 16.9 µM (inactive) | 21 µM (inactive) | 18.5 µM (inactive) | 13.1 µM (inactive) | 7.59 µM (inactive) | 17.2 µM (inactive) | 20.7 µM (inactive) | 16.4 µM (inactive) | 25.7 µM (inactive) | 20.9 µM (inactive) | 14.6 µM (inactive) | 20.3 µM (inactive) | 22.5 µM (inactive) | 23.4 µM (inactive) | 18.3 µM (inactive) | 14.7 µM (inactive) | –
CCOC(=O)c1nc2ccc(C(F)(F)F)cc2nc1Oc1ccc(F)cc1 | > 100 µM (inactive) | > 100 µM (inactive) | > 100 µM (inactive) | – | – | > 100 µM (inactive) | – | > 100 µM (inactive) | > 100 µM (inactive) | > 100 µM (inactive) | > 100 µM (inactive) | – | > 100 µM (inactive) | > 100 µM (inactive) | > 100 µM (inactive) | > 100 µM (inactive) | > 100 µM (inactive) | > 100 µM (inactive) | > 100 µM (inactive) | > 100 µM (inactive)
C1CN(c2nc3c(nnc4nc(N5CCOCC5)sc43)s2)CCO1 | > 100 µM (inactive) | > 100 µM (inactive) | > 100 µM (inactive) | 37.2 µM (inactive) | > 100 µM (inactive) | 49.7 µM (inactive) | 96.6 µM (inactive) | > 100 µM (inactive) | 84.7 µM (inactive) | – | > 100 µM (inactive) | > 100 µM (inactive) | > 100 µM (inactive) | > 100 µM (inactive) | > 100 µM (inactive) | > 100 µM (inactive) | > 100 µM (inactive) | > 100 µM (inactive) | > 100 µM (inactive) | > 100 µM (inactive)
CCOC(=O)[C@@]12C[C@](/C=C/OC)(O[Si](C)(C)C)[C@@]13c1cc(OC)c(OC)cc1CCN3C(=O)C2=O | > 100 µM (inactive) | > 100 µM (inactive) | > 100 µM (inactive) | > 100 µM (inactive) | > 100 µM (inactive) | > 100 µM (inactive) | > 100 µM (inactive) | > 100 µM (inactive) | > 100 µM (inactive) | – | > 100 µM (inactive) | > 100 µM (inactive) | > 100 µM (inactive) | > 100 µM (inactive) | > 100 µM (inactive) | > 100 µM (inactive) | > 100 µM (inactive) | > 100 µM (inactive) | > 100 µM (inactive) | > 100 µM (inactive)
CC(=O)C(=C(I)I)c1ccccc1 | 29.7 µM (inactive) | – | 16.8 µM (inactive) | 12.3 µM (inactive) | 23.3 µM (inactive) | 25.1 µM (inactive) | 13.3 µM (inactive) | 15.4 µM (inactive) | 11.5 µM (inactive) | 24.5 µM (inactive) | 26.1 µM (inactive) | 24.6 µM (inactive) | 22 µM (inactive) | 31.5 µM (inactive) | 1.84 µM (inactive) | 20 µM (inactive) | 21.8 µM (inactive) | 19.2 µM (inactive) | 20.9 µM (inactive) | –
COC(=O)c1c(O)ccc2c1c1c(n2Cc2cc(OC)cc(OC)c2)C(=O)c2ccccc2C1 | 53.3 µM (inactive) | 52 µM (inactive) | 58.1 µM (inactive) | 68.5 µM (inactive) | 18.4 µM (inactive) | 31.1 µM (inactive) | 29.5 µM (inactive) | 8.28 µM (inactive) | 93.3 µM (inactive) | – | 30.3 µM (inactive) | 36.2 µM (inactive) | 92.3 µM (inactive) | 16.9 µM (inactive) | 21.1 µM (inactive) | 19.7 µM (inactive) | 50.6 µM (inactive) | 63.4 µM (inactive) | 43.3 µM (inactive) | 7.82 µM (inactive)
N#CCc1nc(Cc2ccccc2)n[nH]1 | > 100 µM (inactive) | > 100 µM (inactive) | > 100 µM (inactive) | > 100 µM (inactive) | > 100 µM (inactive) | > 100 µM (inactive) | > 100 µM (inactive) | > 100 µM (inactive) | – | > 100 µM (inactive) | > 100 µM (inactive) | > 100 µM (inactive) | > 100 µM (inactive) | > 100 µM (inactive) | > 100 µM (inactive) | > 100 µM (inactive) | > 100 µM (inactive) | > 100 µM (inactive) | > 100 µM (inactive) | –
Oc1ccc(N=C2CCC(=C(c3ccccc3)c3ccc(Nc4ccc(O)cc4)cc3)CC2)cc1 | 60.8 µM (inactive) | > 100 µM (inactive) | 62.7 µM (inactive) | – | > 100 µM (inactive) | 50.9 µM (inactive) | 54.6 µM (inactive) | 39.4 µM (inactive) | > 100 µM (inactive) | 64.3 µM (inactive) | – | 83.9 µM (inactive) | > 100 µM (inactive) | 96.2 µM (inactive) | 35.4 µM (inactive) | 58.6 µM (inactive) | 77.6 µM (inactive) | 57.4 µM (inactive) | 32.4 µM (inactive) | 46.1 µM (inactive)
CC(C)(C)c1cc(CC2C(=O)c3ccccc3C2=O)cc(C(C)(C)C)c1O | 2.45 µM (inactive) | 5.57 µM (inactive) | 4.22 µM (inactive) | – | 11.7 µM (inactive) | 3.44 µM (inactive) | 4.11 µM (inactive) | 2.24 µM (inactive) | – | – | 5.45 µM (inactive) | 8.59 µM (inactive) | 13.3 µM (inactive) | 2.7 µM (inactive) | 3.22 µM (inactive) | – | 3.2 µM (inactive) | 2.95 µM (inactive) | 3.51 µM (inactive) | 0.764 µM (active)
Cc1nc(-c2cc3c(ccc4ccccc43)oc2=O)cc2c1c(=O)oc1ccc3ccccc3c12 | > 100 µM (inactive) | > 100 µM (inactive) | > 100 µM (inactive) | > 100 µM (inactive) | > 100 µM (inactive) | > 100 µM (inactive) | – | > 100 µM (inactive) | – | > 100 µM (inactive) | > 100 µM (inactive) | > 100 µM (inactive) | > 100 µM (inactive) | > 100 µM (inactive) | > 100 µM (inactive) | > 100 µM (inactive) | > 100 µM (inactive) | > 100 µM (inactive) | > 100 µM (inactive) | –
O=C1CC2C(=O)C1C(C(=O)O)C2C(=O)O (stereo unspecified) | > 100 µM (inactive) | > 100 µM (inactive) | > 100 µM (inactive) | > 100 µM (inactive) | > 100 µM (inactive) | > 100 µM (inactive) | > 100 µM (inactive) | > 100 µM (inactive) | > 100 µM (inactive) | – | > 100 µM (inactive) | > 100 µM (inactive) | > 100 µM (inactive) | > 100 µM (inactive) | > 100 µM (inactive) | > 100 µM (inactive) | > 100 µM (inactive) | > 100 µM (inactive) | > 100 µM (inactive) | > 100 µM (inactive)
O=C1C=CC[C@H](/C=C/C[C@@H](O)C[C@H](O)/C=C/c2ccccc2)O1 | 13.3 µM (inactive) | 11.7 µM (inactive) | 11.3 µM (inactive) | 14.9 µM (inactive) | 15.1 µM (inactive) | 21.8 µM (inactive) | 13.8 µM (inactive) | 5.09 µM (inactive) | 12.8 µM (inactive) | 2.28 µM (inactive) | 13.6 µM (inactive) | 15.8 µM (inactive) | 14.1 µM (inactive) | 14.5 µM (inactive) | 6.4 µM (inactive) | 6.89 µM (inactive) | 12.3 µM (inactive) | 13.2 µM (inactive) | 12.3 µM (inactive) | –
CC(NC(=O)C(N)CC(=O)O)NC(=O)C1CCC1 (stereo unspecified) | > 100 µM (inactive) | > 100 µM (inactive) | > 100 µM (inactive) | > 100 µM (inactive) | > 100 µM (inactive) | > 100 µM (inactive) | > 100 µM (inactive) | > 100 µM (inactive) | > 100 µM (inactive) | – | > 10 µM (inactive) | > 100 µM (inactive) | > 100 µM (inactive) | > 100 µM (inactive) | > 100 µM (inactive) | > 100 µM (inactive) | > 100 µM (inactive) | > 100 µM (inactive) | > 100 µM (inactive) | > 100 µM (inactive)
CCc1c(O)cc(=O)oc1-c1ccc(OC)c(OC)c1 | > 100 µM (inactive) | > 100 µM (inactive) | > 100 µM (inactive) | – | > 100 µM (inactive) | > 100 µM (inactive) | > 100 µM (inactive) | > 100 µM (inactive) | – | > 100 µM (inactive) | > 100 µM (inactive) | > 100 µM (inactive) | > 100 µM (inactive) | > 100 µM (inactive) | > 100 µM (inactive) | > 100 µM (inactive) | > 100 µM (inactive) | > 100 µM (inactive) | > 100 µM (inactive) | –
CCOC(=O)C(=[N+]=[N-])C(=O)CSC#N | > 100 µM (inactive) | 94.8 µM (inactive) | 84.7 µM (inactive) | 55 µM (inactive) | > 100 µM (inactive) | > 100 µM (inactive) | 25.6 µM (inactive) | 33 µM (inactive) | 40.6 µM (inactive) | – | > 100 µM (inactive) | 97.7 µM (inactive) | > 100 µM (inactive) | > 100 µM (inactive) | 32.7 µM (inactive) | > 100 µM (inactive) | > 100 µM (inactive) | 31.2 µM (inactive) | > 100 µM (inactive) | –
